The source of these data is patent publication US11661431B2, “Thienopyrrole compounds” (Gilead Sciences, Inc., priority 2021, dated 2023).

Values after ≈ are worked out from the molar mass of the structure shown. Where two headings read alike, the source gives them in different places.

For series [1], the target named is TLR8 (Homo sapiens (Human), UniProt Q9NR97). As to the kind of experiment: TLR8 human peripheral blood mononuclear cell (PBMC) cell-based assay (Compound A as agonist; TNFα and IL12p40 readout). Particulars: human PBMCs, TLR8 agonist Compound A at 800 nM, 6 hours, antagonist potency; read-out: TLR-8 EC50.
Sequence of TLR8 (Q9NR97 27-1041): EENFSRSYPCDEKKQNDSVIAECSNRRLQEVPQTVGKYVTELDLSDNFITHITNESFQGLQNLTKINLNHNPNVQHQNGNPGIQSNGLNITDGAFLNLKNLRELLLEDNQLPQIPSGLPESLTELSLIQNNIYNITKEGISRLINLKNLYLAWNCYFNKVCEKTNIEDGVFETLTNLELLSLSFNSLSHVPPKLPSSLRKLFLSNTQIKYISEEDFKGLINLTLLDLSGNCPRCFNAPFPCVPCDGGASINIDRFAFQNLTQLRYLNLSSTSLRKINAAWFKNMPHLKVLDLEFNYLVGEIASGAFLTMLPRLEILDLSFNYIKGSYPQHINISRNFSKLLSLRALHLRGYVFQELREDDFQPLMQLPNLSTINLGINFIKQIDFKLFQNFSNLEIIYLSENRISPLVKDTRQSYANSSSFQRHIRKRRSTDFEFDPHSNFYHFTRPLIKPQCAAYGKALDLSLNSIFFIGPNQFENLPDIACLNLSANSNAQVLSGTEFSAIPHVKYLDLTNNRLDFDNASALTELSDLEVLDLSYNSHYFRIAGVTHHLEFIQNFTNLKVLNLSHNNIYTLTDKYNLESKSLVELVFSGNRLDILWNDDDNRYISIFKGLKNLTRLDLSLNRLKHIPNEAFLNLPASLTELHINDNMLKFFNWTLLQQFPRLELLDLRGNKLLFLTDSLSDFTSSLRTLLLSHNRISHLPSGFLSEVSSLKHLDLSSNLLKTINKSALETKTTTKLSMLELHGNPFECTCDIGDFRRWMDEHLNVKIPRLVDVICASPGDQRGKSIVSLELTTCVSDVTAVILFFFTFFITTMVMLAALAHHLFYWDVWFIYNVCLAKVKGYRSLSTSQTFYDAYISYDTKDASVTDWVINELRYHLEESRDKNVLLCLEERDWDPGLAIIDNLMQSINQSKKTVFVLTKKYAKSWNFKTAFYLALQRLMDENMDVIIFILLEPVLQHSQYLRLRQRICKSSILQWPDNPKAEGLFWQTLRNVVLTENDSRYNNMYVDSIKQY
The target in series [2] is MATE2-K (multidrug and toxin extrusion protein 2) (Homo sapiens (Human), UniProt Q86VL8). Briefly: MATE2-K IC50 assay (14C-metformin uptake in transfected MDCK-II cells). The class given is in vitro ADME. The method, then: MATE2-K (multidrug and toxin extrusion protein 2) is expressed in the apical membrane in the kidney and mediates the elimination of compounds to urine. MDCK-II cells were maintained in DMEM with low glucose and 10% FBS. Cells passages up to 40 were seeded at 60K±10K cells/well on 96-well, transwell membrane plates approximately 24 hours before transfection. Transport assays were carried out approximately 48 hours after transfection. […]. The assay plate was then placed in a 37° C. incubator with orbital shaking at approximately 60 RPM for the pre-incubation time of 15 minutes. […]. The assay plate was incubated at 37° C. with orbital shaking at approximately 60 RPM for the incubation time of 5 minutes. At end of the 5-minute incubation, 15 μL of dosing solution was removed from each well containing the compound being tested and measured using LC/MS/MS for dose recovery assessment. The assay wells were then washed four times with ice cold PBS. 60 μL cell extraction solution was added to each well and the plate was incubated at 37° C. with orbital shaking at approximately 60 RPM for the 15 minutes. After this incubation, 30 μL was removed from each well, added to 200 μL scintillation fluid, and counted on a 1450 Microbeta (Perkin-Elmer) to measure the probe substrate uptake. Inhibition potential of the compound being tested was calculated by dividing the transporter-mediated uptake rate in presence of the compound being tested or the reference inhibitor by the transporter-mediated uptake rate in presence of vehicle control and fitted to a sigmoidal function to determine the IC50 values.
Sequence of MATE2-K (multidrug and toxin extrusion protein 2) (Q86VL8 other isoform, or with tags, fused parts or gaps, species assumed): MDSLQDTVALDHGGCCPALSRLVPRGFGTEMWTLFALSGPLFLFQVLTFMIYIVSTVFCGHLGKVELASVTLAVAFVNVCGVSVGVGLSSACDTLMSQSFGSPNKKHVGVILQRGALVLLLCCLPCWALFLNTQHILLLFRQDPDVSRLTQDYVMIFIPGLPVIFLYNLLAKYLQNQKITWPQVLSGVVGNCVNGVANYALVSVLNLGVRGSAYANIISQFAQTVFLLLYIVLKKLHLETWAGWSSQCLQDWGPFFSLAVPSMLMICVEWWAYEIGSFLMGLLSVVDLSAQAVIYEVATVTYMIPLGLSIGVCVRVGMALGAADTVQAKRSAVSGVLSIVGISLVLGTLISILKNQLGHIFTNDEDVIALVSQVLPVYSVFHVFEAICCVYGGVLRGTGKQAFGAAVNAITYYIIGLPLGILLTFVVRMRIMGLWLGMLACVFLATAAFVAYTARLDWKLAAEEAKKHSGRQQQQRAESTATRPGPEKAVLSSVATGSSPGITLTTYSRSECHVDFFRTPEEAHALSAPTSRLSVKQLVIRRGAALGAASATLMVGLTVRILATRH

In series [3] the test system is cryopreserved hepatocytes. Briefly: Human hepatic stability in cryopreserved hepatocytes. Particulars: 1×10^6 cells/mL, aliquots at 0, 1, 3 and 6 hours, LC-MS/MS.
Description: (§1) Each tested compound was incubated in suspensions of cryopreserved hepatocytes at a final concentration of 1 μM. Vials containing cryopreserved hepatocytes were removed from liquid nitrogen and immediately immersed in a 37° C. water bath. The vials were swirled gently until the contents had thawed. They were then immediately emptied into 48 mL of pre-warmed HT medium in a 50 mL conical tube. Cells remaining in the vial were resuspended with 1.0 mL of pre-warmed HT medium and added to the conical tube. The tube was capped and then gently inverted several times to re-suspend the hepatocytes. The cell suspension was centrifuged at 500×g for 10 minutes at room temperature and the supernatant discarded. The cell pellet was loosened by gently swirling the centrifuge tube. Non-supplemented KHB medium was added to obtain the appropriate target cell density.
(§2) For incubations, aliquots of hepatocyte suspension (250 mL at a concentration of 2×10^6 cells/mL) were added to 250 mL of 2 mM of each tested compound in KHB, in duplicate wells in a 24-well plate. Final concentration in the incubations were 1×10^6 cells/mL and 1 mM of each tested compound. […] A cell-free control was also tested in parallel with the incubations. The incubations were carried out with gentle shaking in a 37° C. incubator under a humid atmosphere of 95% air/5% CO2 (v/v). Aliquots (100 mL) were removed after 0, 1, 3, and 6 hours and added to 200 mL IS/Q. The samples were then placed on a shaker for 10 min followed by centrifugation at 3000×g for 20 min. The supernatant was transferred to a new plate and diluted with 100 μL of water to reduce the organic solvent content and then placed on a shaker for 10 mins. Samples were injected and analyzed using LC-MS/MS.
Series [4] is described as follows: Kinetic solubility at pH 7.4. Particulars: 1×PBS buffer (pH 7.4), 22.8 °C, pH 7.4, aqueous buffer, kinetic from dmso stock.
Description: Kinetic Solubility at pH 7.4
(§3) The final DMSO Concentration was 1.0% and maximum theoretical compound concentration is 100 μM. The filter plate was sealed. […] The collection plate was sealed for analysis.
(§4) Filtrates were injected into the nitrogen detector for quantification on Analiza's Automated Discovery Workstation. The results are reported in μg/ml.
(§5) The filtrates were quantified with respect to this calibration curve. The calculated solubility values were corrected for background nitrogen present in the DMSO, and the media used to prepare the samples.
(§6) The 1×PBS buffer (pH 7.4) was prepared by adding 50 mL of phosphate buffered saline solution 10×, PBS (Fisher Bioreagent part number BP399-500) to approximately 450 mL HPLC grade H2O. The volume of the solution was then adjusted to 500 mL for a total dilution factor of 1:10 and a final PBS concentration of 1×. The pH of the final solution was measured and found to be 7.4.
(§7) Each compound tested was analyzed as a trifluoroacetate salt.
The target in series [5] is TLR7 (Homo sapiens (Human), UniProt Q9NYK1). As to the kind of experiment: TLR7 human peripheral blood mononuclear cell (PBMC) cell-based assay (GS-986 as agonist; IL-6 and IFNα readout). To be noted: human PBMCs, TLR7 agonist GS-986 at 400 nM, 6 hours, antagonist potency; read-out: TLR-7 EC50. Put shortly:
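IL-6 and IFNα released into supernatant were quantified by electrochemiluminescence immunoassay. Before that, human PBMCs at 100,000 per well received a 10-point antagonist titration for 1 h, then TLR7 agonist for 6 more hours, all at 37 °C, 5% CO2.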

The nature of series [6]: physchem. To be noted: 22.8 °C, pH 7.4, aqueous buffer, kinetic from dmso stock.
Description: Kinetic Solubility at pH 7.4
as §3, §4, §5, §6, §7
For series [7], the system named is cryopreserved hepatocytes. To be noted: human, 1 μM.
Description: as §1, §2

Sequence of TLR7 (Q9NYK1 27-1049): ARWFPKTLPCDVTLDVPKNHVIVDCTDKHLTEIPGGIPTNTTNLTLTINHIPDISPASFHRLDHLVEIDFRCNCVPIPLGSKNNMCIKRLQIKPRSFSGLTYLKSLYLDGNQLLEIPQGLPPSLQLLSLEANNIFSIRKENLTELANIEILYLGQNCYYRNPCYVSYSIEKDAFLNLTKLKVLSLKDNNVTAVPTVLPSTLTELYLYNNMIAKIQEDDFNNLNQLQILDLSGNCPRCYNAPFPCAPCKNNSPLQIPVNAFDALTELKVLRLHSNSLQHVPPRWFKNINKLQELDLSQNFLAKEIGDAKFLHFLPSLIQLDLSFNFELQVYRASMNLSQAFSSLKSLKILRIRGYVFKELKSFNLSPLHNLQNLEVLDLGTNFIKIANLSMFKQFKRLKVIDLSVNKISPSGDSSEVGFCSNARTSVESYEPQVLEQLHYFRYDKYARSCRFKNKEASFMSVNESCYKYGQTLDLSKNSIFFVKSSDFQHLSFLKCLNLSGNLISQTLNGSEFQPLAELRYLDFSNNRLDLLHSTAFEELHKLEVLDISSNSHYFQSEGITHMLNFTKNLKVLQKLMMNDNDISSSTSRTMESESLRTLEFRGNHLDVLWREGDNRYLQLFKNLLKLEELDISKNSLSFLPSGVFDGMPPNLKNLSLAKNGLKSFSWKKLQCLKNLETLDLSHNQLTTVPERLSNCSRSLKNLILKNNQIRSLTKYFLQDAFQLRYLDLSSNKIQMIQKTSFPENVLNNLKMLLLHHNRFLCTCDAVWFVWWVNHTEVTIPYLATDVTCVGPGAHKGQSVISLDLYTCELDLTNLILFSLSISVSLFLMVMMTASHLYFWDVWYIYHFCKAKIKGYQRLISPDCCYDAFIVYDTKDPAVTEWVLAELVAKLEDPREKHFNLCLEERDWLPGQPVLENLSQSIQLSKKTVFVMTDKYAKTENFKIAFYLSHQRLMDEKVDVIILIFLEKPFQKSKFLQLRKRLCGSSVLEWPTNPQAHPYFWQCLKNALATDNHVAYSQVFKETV

`Cc1c(-c2[nH]c3sc(C4CCN(CC(N)=O)CC4)c(C)c3c2C(C)C)cn2ncnc2c1C` [Example 67]: the EC50 in series [1] worked out at 2.08 nM; in series [5] it was 0.35 nM. This molecule returned an IC50 in series [2] of 6200 nM. In addition, in series [3], the “Predicted Clearance” value was 0.14 L/h/kg. The same molecule gave a solubility (kinetic) at 24 h in series [4] of 0.0168 mg/mL (≈ 36.2 µM).

In the case of `Cc1c(-c2[nH]c3sc([C@@H]4C[C@@H]5C[C@H]4CN5CC(N)=O)c(C)c3c2C(C)C)cn2ncnc2c1C` [Example 79, 2-((1S,4R,5R)-5-(5-(7,8-dimethyl-[1,2,4]triazolo[1,5-a]pyridin-6-yl)-4 isopropyl-3-methyl-6H-thieno[2,3-b]pyrrol-2-yl)-2-azabicyclo[2.2.1]heptan-2-yl)acetamide], the EC50 is 0.23 nM in series [1] and 0.12 nM in series [5]. The same molecule yielded a concentration for half-maximal inhibition (IC50) in series [2] of 8100 nM. Further, the “Predicted Clearance” value in series [3] was 0.26 L/h/kg. Besides, the solubility (kinetic) at 24 h in series [4] came to 0.0215 mg/mL (≈ 45.1 µM).

With `Cc1c(-c2[nH]c3sc([C@@H]4C[C@H]5CC[C@@H](C4)N5CC(N)=O)c(C)c3c2C(C)C)cn2ncnc2c1C` [Example 91], the EC50 in series [1] amounted to 5.41 nM; in series [5], 0.09 nM. This molecule showed a solubility (kinetic) at 24 h in series [6] of 0.0022 mg/mL (≈ 4.48 µM). In series [2], this molecule had an IC50 of 7800 nM. Moreover, the “Predicted Clearance” value in series [7] was 0.24 L/h/kg.

As to `COc1cc(-c2[nH]c3cc(C4CCNCC4)sc3c2C(C)C)cn2ncnc12` [Example B-1, reference compound], the EC50 in series [1] was determined as 2.55 nM; in series [5], 0.3 nM. This molecule also had an IC50 in series [2] of 1100 nM. Also, the “Predicted Clearance” value in series [3] is 0.26 L/h/kg. In addition, the solubility (kinetic) at 24 h in series [4] stood at 0.022 mg/mL (≈ 55.6 µM).
